Experiment: MB-102 pig plasma concentration after intramuscular dosing
Format: in vivo
Details: pig 09801, IM, 3.2 mpk
Source text: Juvenile Yorkshire pigs weighing approximately 25 kg were anesthetized, their body temperature stabilized, and an IV port surgically placed. A region approximately half-way along the line between the hip and knee joint was selected as the injection site and prepared by cleaning the skin and removing any exposed hair by shaving the selected area at least twice. Similarly, the site where two Quantum Leap fluorescent sensors (disclosed in U.S. Pat. No. 10,548,521) were to be positioned (chest) was prepared by washing and shaving. After the skin was dry the sensors were attached with commercially available skin adhesive and background skin auto-fluorescence measurements were recorded. After about 20 minutes of background fluorescence collection the subject animal was dosed either intravenously (animal 48019) or subcutaneously (animals 52771, 53701 09802, or 1539) or intramuscularly (09801) with PBS-1× formulated MB-102 at 3.2 mg/kg. Injection of the appropriate volume took place over about a minute. […] At this point glomerular elimination of MB-102 by the kidneys led to a decrease of fluorescence signal over time. Blood samples (1.5 mL) were taken immediately prior to the introduction of MB-102 (0 minutes) and at 15 minute intervals throughout the procedure. Blood was collected in BD vacutainer K2EDTA tubes, spun to plasma and stored at −80° C. until analyzed. Subsequently, the processed plasma samples were thawed, diluted with PBS-1× and analyzed by HPLC or UPLC and the concentration of MB-102 determined using standard analytical techniques. Further details for each animal are provided in the examples that follow.
Experimental animal Yorkshire pig, 09801, was subject to Intramuscular (IM) administration of MB-102 using substantially the same procedure as Example 8, but substituting a 2 mL syringe equipped with a single 13 mm×27 g needle. […] Blood sampling and processing was as described in Example 8 and the results (Table 1) are plotted in FIG. 6.

**Q.** For `Nc1nc(C(=O)N[C@H](CO)C(=O)O)c(N)nc1C(=O)N[C@H](CO)C(=O)O` [MB-102, 3,6-diamino-2,5-bis{N-[(1R)-1-carboxy-2-hydroxyethyl]carbamoyl}pyrazine], which concentration at 15 min (Yorkshire, plasma, intramuscular, 3.2 mg/kg, 15 min, read-out: MB-102 Pig Plasma Conc.) is on record?
**A.** Its concentration at 15 min is 10000 ng/mL.

**Q.** And the concentration at 30 min (Yorkshire, plasma, intramuscular, 3.2 mg/kg, 30 min, read-out: MB-102 Pig Plasma Conc.)?
**A.** The concentration at 30 min was 8130 ng/mL.

**Q.** What about the concentration at 45 min (Yorkshire, plasma, intramuscular, 3.2 mg/kg, 45 min, read-out: MB-102 Pig Plasma Conc.) of the same compound?
**A.** Its concentration at 45 min is 6240 ng/mL.

**Q.** And the concentration at 60 min (Yorkshire, plasma, intramuscular, 3.2 mg/kg, 60 min, read-out: MB-102 Pig Plasma Conc.)?
**A.** Its concentration at 60 min is 5030 ng/mL.

**Q.** What about the concentration at 75 min (Yorkshire, plasma, intramuscular, 3.2 mg/kg, 75 min, read-out: MB-102 Pig Plasma Conc.) of the same compound?
**A.** Its concentration at 75 min is 3920 ng/mL.

**Q.** And the concentration at 90 min (Yorkshire, plasma, intramuscular, 3.2 mg/kg, 90 min, read-out: MB-102 Pig Plasma Conc.)?
**A.** Its concentration at 90 min is 3370 ng/mL.

**Q.** And the concentration at 105 min (Yorkshire, plasma, intramuscular, 3.2 mg/kg, 105 min, read-out: MB-102 Pig Plasma Conc.)?
**A.** The concentration at 105 min was 2720 ng/mL.

**Q.** And the concentration at 120 min (Yorkshire, plasma, intramuscular, 3.2 mg/kg, 120 min, read-out: MB-102 Pig Plasma Conc.)?
**A.** Its concentration at 120 min is 2130 ng/mL.

**Q.** What about the concentration at 135 min (Yorkshire, plasma, intramuscular, 3.2 mg/kg, 135 min, read-out: MB-102 Pig Plasma Conc.) of the same compound?
**A.** Its concentration at 135 min is 1800 ng/mL.

**Q.** And the concentration at 150 min (Yorkshire, plasma, intramuscular, 3.2 mg/kg, 150 min, read-out: MB-102 Pig Plasma Conc.)?
**A.** Its concentration at 150 min is 1510 ng/mL.

**Q.** And the concentration at 165 min (Yorkshire, plasma, intramuscular, 3.2 mg/kg, 165 min, read-out: MB-102 Pig Plasma Conc.)?
**A.** Its concentration at 165 min is 1340 ng/mL.

**Q.** And the concentration at 180 min (Yorkshire, plasma, intramuscular, 3.2 mg/kg, 180 min, read-out: MB-102 Pig Plasma Conc.)?
**A.** The concentration at 180 min was 1110 ng/mL.

**Q.** And the concentration at 195 min (Yorkshire, plasma, intramuscular, 3.2 mg/kg, 195 min, read-out: MB-102 Pig Plasma Conc.)?
**A.** Its concentration at 195 min is 946 ng/mL.

**Q.** What about the concentration at 210 min (Yorkshire, plasma, intramuscular, 3.2 mg/kg, 210 min, read-out: MB-102 Pig Plasma Conc.) of the same compound?
**A.** Its concentration at 210 min is 841 ng/mL.

**Q.** And the concentration at 225 min (Yorkshire, plasma, intramuscular, 3.2 mg/kg, 225 min, read-out: MB-102 Pig Plasma Conc.)?
**A.** The concentration at 225 min was 686 ng/mL.

**Q.** And the concentration at 240 min (Yorkshire, plasma, intramuscular, 3.2 mg/kg, 240 min, read-out: MB-102 Pig Plasma Conc.)?
**A.** The concentration at 240 min was 578 ng/mL.

**Q.** What about the concentration at 255 min (Yorkshire, plasma, intramuscular, 3.2 mg/kg, 255 min, read-out: MB-102 Pig Plasma Conc.) of the same compound?
**A.** The concentration at 255 min was 520 ng/mL.

**Q.** And the concentration at 270 min (Yorkshire, plasma, intramuscular, 3.2 mg/kg, 270 min, read-out: MB-102 Pig Plasma Conc.)?
**A.** The concentration at 270 min was 434 ng/mL.

**Q.** And the concentration at 285 min (Yorkshire, plasma, intramuscular, 3.2 mg/kg, 285 min, read-out: MB-102 Pig Plasma Conc.)?
**A.** Its concentration at 285 min is 373 ng/mL.

**Q.** And the concentration at 300 min (Yorkshire, plasma, intramuscular, 3.2 mg/kg, 300 min, read-out: MB-102 Pig Plasma Conc.)?
**A.** Its concentration at 300 min is 333 ng/mL.

**Q.** And the concentration at 315 min (Yorkshire, plasma, intramuscular, 3.2 mg/kg, 315 min, read-out: MB-102 Pig Plasma Conc.)?
**A.** The concentration at 315 min was 298 ng/mL.

**Q.** What about the concentration at 330 min (Yorkshire, plasma, intramuscular, 3.2 mg/kg, 330 min, read-out: MB-102 Pig Plasma Conc.) of the same compound?
**A.** Its concentration at 330 min is 261 ng/mL.

**Q.** And the concentration at 345 min (Yorkshire, plasma, intramuscular, 3.2 mg/kg, 345 min, read-out: MB-102 Pig Plasma Conc.)?
**A.** The concentration at 345 min was 222 ng/mL.

**Q.** And the concentration at 360 min (Yorkshire, plasma, intramuscular, 3.2 mg/kg, 360 min, read-out: MB-102 Pig Plasma Conc.)?
**A.** Its concentration at 360 min is 203 ng/mL.

**Q.** And the “SUM (plasma conc. over time)” value (15-360 min)?
**A.** Its value is 794,162 ng/mL*min.
